Assay: Squalene degradation test with free-radical initiator V65 (protective factor QS, synergy with tocopherol)
Set-up: key to QS: QS = degradation rate without stabilizer / degradation rate with it
Conditions: squalene content by GC; for QS: 250 ppm test substance in 2% azobis(2,4-dimethylvaleronitrile) in squalene, stored open 30 days at 40° C., QSx=degradation rate0/degradation ratex; for QS + 250 ppm Tocopherol: 250 ppm test substance plus 250 ppm tocopherol in 2% azobis(2,4-dimethylvaleronitrile) in squalene, 30 days at 40° C.
Method: General procedure for determining the synergistic effect of peroxide decomposers used according to the invention with tocopherol
3 ml of a 2% strength solution of azobis(2,4.dimethylvaleronitrile). (V65, Wako Chemical Co.) in squalene are poured together with 250 ppm of test substance (based on the squalene solution) into Fiolax test tubes ([…]) and thoroughly mixed using a laboratory shaker. The samples are then stored open in a circulatory drying cabinet for 30 days at 40° C. At intervals of 7 days, the squalene content of the samples is ascertained using gas chromatography. The reference used is a sample without the […]. The data points are documented in an XY graph and the effectiveness of the test substances is determined by reference to the slope of the decomposition curves in comparison to the reference sample.
A measure of the protective effect of a test compound is the factor QS, which is a measure of how much a stabilizer reduces the degradation rate. QSx=degradation rate0/degradation ratex

Molecule	QS	QS + 250 ppm Tocopherol
Sc1nccs1 [compound 3]	2.75	4.25
S=c1cc[nH]c(=S)[nH]1 [compound 4]	1.13	2.08
CCCc1cc(O)nc(S)n1 [compound 5]	2.58	4.44
S=C1CSc2ccccc2N1 [compound 6]	3.03	3.75
On1ccccc1=S [compound 7]	1.47	2.58
Sc1nnc(-c2ccccc2)[nH]1 [compound 8]	1.34	1.8
Oc1cccnc1S [compound 9]	1.66	2.25
O=C(O)c1cccnc1S [compound 10]	1.18	1.65
Tocopherol [reference compound]	1.3	

— patent US20080193397A1, “Use of Peroxide Decomposers Method For the Treatment of a Material Other Than the Human Body” (BASF Aktiengesellscaft, priority 2005, published 2008)
